Assay results from ChEMBL document CHEMBL1157975, “Diterpenoids from the roots of Euphorbia fischeriana” (J Nat Prod, 2006).
≈ marks a conversion by molar mass, not a printed value.

Tested on: Ramos
Test: Cytotoxicity against human Ramos B cells after 72 hrs by MTT assay
Assay type: functional, cell-based

## CCCCCCCCCC(=O)O[C@@]12C[C@@H](C)[C@]3(O)[C@@H](C=C(CO)C[C@@]4(O)C(=O)C(C)=C[C@@H]34)[C@@H]1C2(C)C
  IC50: 0.0051 µg/mL (≈ 0.0101 µM)

## CC(=O)OCC1=C2[C@H]3O[C@]34CC[C@@H]3C(C)(C)CCC[C@@]3(C)[C@@H]4[C@H]3O[C@@]23OC1=O [17-ACETOXYJOLKINOLIDE B]
  IC50: 0.023 µg/mL (≈ 0.0592 µM)

## CC(=O)O[C@@]12C[C@@H](C)[C@@]3(O)[C@@H](C=C(CO)C[C@]4(O)C(=O)C(C)=C[C@@H]34)[C@@H]1C2(C)C [PROSTRATIN]
  IC50: 0.056 µg/mL (≈ 0.143 µM)
